According to patent US5124322A, “Dipeptide collagenase inhibitors” (Beecham Group p.l.c., priority 1988, dated 1992):
Read-outs that look alike come from different tables or passages of the source.

Molecular target: T1, human lung fibroblast collagenase (Homo sapiens, UniProt P03956)
T1 construct: from culture supernatants from the human lung fibroblast cell line, WI-38; endogenous in cells; host or cells: WI-38 human lung fibroblast cell line (culture supernatant)
T1 sequence (P03956 100-469): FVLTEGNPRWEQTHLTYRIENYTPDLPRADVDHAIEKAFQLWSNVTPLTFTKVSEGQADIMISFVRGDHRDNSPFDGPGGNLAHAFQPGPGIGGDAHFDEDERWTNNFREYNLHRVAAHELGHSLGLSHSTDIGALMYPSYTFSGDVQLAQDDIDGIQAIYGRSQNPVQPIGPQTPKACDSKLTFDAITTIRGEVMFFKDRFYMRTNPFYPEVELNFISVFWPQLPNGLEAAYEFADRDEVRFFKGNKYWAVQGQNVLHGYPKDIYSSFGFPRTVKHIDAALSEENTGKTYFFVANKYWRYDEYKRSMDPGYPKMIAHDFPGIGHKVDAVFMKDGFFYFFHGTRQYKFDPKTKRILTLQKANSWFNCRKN
Experiment: Collagenase inhibitor assay, human lung fibroblast collagenase (14C-collagen fibril degradation)
Type: biochemical
Conditions: collagenase from WI-38 culture supernatants
Procedure: The test is performed essentially as in Cawston and Barrett, Anal. Biochem. 99, 340-345 (1979). Compounds for testing are dissolved in methanol and added to collagenase (purified from cultures of rabbit bone or from culture supernatants from the human lung fibroblast cell line, WI-38) in buffer. In order to ensure that thiol collagenase inhibitors remained unoxidised, β-mercaptoethanol may be incorporated in the methanol solvent and/or the diluent buffers. The minimal direct effect of β-mercaptoethanol on the degradation of collagen by human or rabbit collagenase is controlled for. After a 5-15 min pre-incubation at 37° C., the assay tubes are cooled to 4° C. and ^14 C-acetylated rat skin […] collagen is added. The assay tubes are incubated at 37° C. overnight. The ^14 C-collagen forms insoluble fibrils which are the substrate for the enzyme.
To terminate the assay, the assay tubes are spun at 12000 rpm for 15 min. Undigested ^14 C-collagen is pelleted, while digested ^14 C-collagen is found as soluble peptides in the supernatant. A sample of the supernatant is taken for liquid scintillation counting.
The activity of collagenase inhibitors (IC50 : 50% inhibitory concentration) is expressed as that concentration of compound that inhibits a known (standard) concentration of enzyme by 50%.

[1] = * = +mercaptoethanol, read-out: IC50, Inhibition of human lung fibroblast collagenase, +mercaptoethanol
[2] = without mercaptoethanol, read-out: IC50, Inhibition of human lung fibroblast collagenase

| IC50 [1] | IC50 [2] | Compound |
| --- | --- | --- |
| 190 nM | 1500 nM | 4-Chloro-2-mercapto-N-[2-(3-indolyl)-1-(S)-(methyl-aminocarbonyl)ethyl]-α-(2-methylpropyl)phenylpropanamide [Example 8] |
| 250 nM | 1800 nM | CNC(=O)[C@H](Cc1ccc(OC)cc1)NC(=O)C(Cc1ccc(Cl)cc1S)CC(C)C (stereo partly drawn) [Example 5, 4-Chloro-2-mercapto-N-[2-(4-methoxyphenyl)-1-(S)-(methylaminocarbonyl)ethyl]-α-(2-methylpropyl)phenylpropanamide] |
